Reference: US11905338B2, “Peptides for use as cell-penetrating peptides” (CENTRE NATIONAL DE LA RECHERCHE SCIENTIFIQUE, priority 2018, dated 2024)
Entries after “also recorded” stand apart in the source; their conditions may differ. Where no end group is shown, it is not given here. [ ]: non-standard residue; d: D form. Ahx = NCCCCCC(=O)O

What was measured:
[1] = Dynamic light scattering and zeta potential of nanoparticles; type: physicochemical; conditions: for PdI / Mean size (nm) I (%) / Mean size (nm) Nb (%): CPP:siRNA R = 20, 5% glucose; for Mean size (nm) I (%): intensity; for Mean size (nm) Nb (%): number
Procedure: Dynamic light scattering (DLS) and Zeta potential (ZP). CPPs:siRNA nanoparticles were evaluated with a Zetasizer NanoZS (Malvern) in terms of mean size (Z-average) of the particle distribution and of homogeneity (PdI). Zeta potential was determined in 5% glucose+5 mM of NaCl. All results were obtained from three independent measurements (three runs for each measurement at 25° C.).

[2] = as above; type: physicochemical
[3] = tested on: U87 cells; assay: LDH cytotoxicity measurement; type: cell-based, human; conditions: incubation times 5 min to 90 min, 20 nM siFLuc
Procedure: Measurement of cell cytotoxicity. Evaluation of cytotoxicity induced by the nanoparticles was performed using Cytotoxicity Detection Kit^Plus (LDH, Roche Diagnostics) on 50 μL of supernatant, by following the manufacturer instructions.

[4] = tested on: firefly luciferase (FLuc) in U87 cells; assay: Luciferase reporter gene silencing assay; type: cell-based, human; conditions: for Incubation time for maximum and saturating FLuc silencing / Reduction of FLuc activity: 20 nM siFLuc; for Reduction in the luciferase activity in presence of serum: 10% serum, 15-20 nM siRNA (CPP1), 10-20 nM (CPP2); for Reduction of FLuc activity: 5 min incubation, then 36 h in medium; for Fold more active than C6M1-L in reduced luciferase expression / Fold more active than C6M1 in reduced luciferase expression: CPP=200 nM, siRNA=10 nM; for Luciferase knock-down at R=40 relative to R=20: R=40, siFLuc 20 nM; for Activity of nanoparticles in luciferase silencing: R=20, siFLuc, compared with parent CPP
Procedure: Transfection experiments. For Luciferase assay, the different cells (5,000 cells per well) were seeded 24 h before experiment into 96-well plates using the corresponding medium as described above. […] In the meantime, the growth medium covering the cells was replaced by 70 μL of fresh pre-warmed serum-free DMEM. […] After the addition of DMEM supplemented with 20% FBS (final FBS concentration=10%), cells were further incubated for 36 h and finally lysed for the luciferase detection. For transfection in the presence of serum, cells were incubated with nanoparticles in DMEM+10% FBS for 1.5 h at 37° C., and then DMEM supplemented with 10% FBS were added to the cells which were further incubated for 36 h before the final cell lyses for the luciferase detection.
Luciferase reporter gene silencing assay. The evaluation of siRNA delivery using the different vectors was carried out by measuring the remaining luciferase firefly (FLuc) activity in cell lysates. Briefly, after 36 h, the medium covering the cells was carefully removed and replaced by 50 μL of 0.5× Passive Lysis Buffer (PLB; Promega). After 30 min of shaking at 4° C., plates containing the cells were centrifuged (10 min, 1,800 rpm, 4° C.) and 5 μL of each cell lysate supernatant were finally transferred into a white 96-well plate. For the U87-FLuc-NLuc cells, both luciferase activities were quantified using a plate-reading luminometer (POLARstar Omega, BMG Labtech) using half-diluted Dual Luciferase Assay Reagents (Promega) as reported elsewhere (G. Aldrian, et al., (2017) J. Control. Release Off. J. Control. Release Soc. 256, 79-91). The results were expressed as percentage of relative light units (RLU) for each luciferase normalized first to non-treated cells (% FLuc and % NLuc) and then normalized to the value of % NLuc to obtain the Relative Luc Activity (% FLuc/% NLuc).
Cellular activity of CPP-based nanoparticles was evaluated in a luciferase screening assay, as previously described (L. N. Patel, et al., (2007) Pharm. Res. 24, 1977-1992; A. Elmquist, et al., (2001) Exp. Cell Res. 269, 237-244)). The knock-down efficiency of the different CPP:siRNA nanoparticles was performed on U87 cell line stably transfected for constitutive expression of FLuc/NLuc reporter genes (U87-FRT-CMV/Fluc-CMV/iRFP-IRES-NLuc).

[5] = Circular dichroism conformational analysis; type: physicochemical; conditions: for Conformation by circular dichroism, PEPTIDE +siRNA: CPP:siRNA molar ratio R 20, CPP 40 μM; for Conformation by circular dichroism, PEPTIDE +siRNA +charged LUVs / Conformation by circular dichroism, PEPTIDE +siRNA +neutral LUVs: R 20, CPP:lipid r 10, CPP 40 μM; for Conformation by circular dichroism, PEPTIDE: peptide free in solution, CPP 40 μM, rc = random coiled
Procedure: Circular dichroism (CD) measurements. CD spectra were recorded on a Jasco 810 (Japan) dichrograph in quartz suprasil cells (Hellma) with an optical path of 1 mm for peptide in solution or in the presence of liposomes vesicles. The same concentrations of peptide (40 μM) was used for each condition. Spectra were obtained from 3 accumulations between 190 nm and 260 nm with a data pitch of 0.5 nm, a bandwidth of 1 nm and a standard sensitivity.
The predicted structures were then compared to experimental investigations. Circular dichroism spectra were recorded for the peptides free in solution, afterwards for the peptides in the presence of siRNA and then after the addition of liposomes.

[6] = tested on: living U87 cells; assay: Spinning disk internalization kinetics of Cy3b-labelled siRNA; type: cell-based, human; conditions: siRNA-Cy3b 20 nM, R=20; for Incubation time to maximal fluorescence of delivered siRNA: maximal fluorescence 90%±5%, 900 s to 945 s
Procedure: For microscopy experiments, 300,000 U87 cells were seeded 24 h before imaging into glass bottom dishes (FluoroDish, World Precision Instruments). Before experiments, cells were washed twice with D-PBS and covered with 1,600 μL of complete medium. Afterwards, 400 μL of NPs (peptide:siRNA; R=20, siRNA=20 nM), formulated in an aqueous solution of 5% glucose were directly added on the cells as previously described.
For Spinning disk experiment, an inverted microscope (Nikon Ti Eclipse) coupled to a spinning disk (ANDOR) system was used to study the internalization kinetics of the NPs inside living cells. After the addition of the NPs, cells were maintained at 37° C. by a cage incubator (Okolab) and images were directly recorded every 5 s for 1,200 s with an EM-CCD camera (iXon Ultra) and projected with the Andor IQ3 software. Control experiments were performed to ensure that no emission bleed through was observed between the different channels. All images were treated with the ImageJ software.

[7] = tested on: FLuc in U937 human macrophage; assay: Luciferase silencing on non-adherent macrophage suspension; type: cell-based; conditions: 10-50 nM siRNA without CPP
Procedure: FIG. 15: Evaluation of CPP1:siRNA and CPP2:siRNA PBNs activity on cell suspensions. […] Incubation conditions: 10,000 cells/well, CPP:siRNA ratio=20:1 at the indicated siRNA concentration, incubation time 1.5 h in serum-free medium. Normalization of FLuc/NLuc values to the condition of untreated cells (N.T.). Abbreviations: siSCR=scrambled siRNA, siFLuc=firefly luciferase specific siRNA. n=2 independent experiments in triplicates. […] Incubation conditions: 10,000 cells/well, CPP:siRNA ratio=20:1 at the indicated siRNA concentration, incubation time 1.5 h in medium containing 10% serum. Normalization of FLuc/NLuc values to the condition of untreated cells (N.T.). Abbreviations: siSCR=scrambled siRNA, siFLuc=firefly luciferase specific siRNA. n=2 independent experiments in triplicates. […] Incubation conditions: 10,000 cells/well, CPP:siRNA ratio=20:1 at the indicated siRNA concentration (or the siRNA alone), incubation time 1.5 h in serum-free medium. Normalization of FLuc values to the condition of untreated cells (N.T.). n=2 independent experiments in triplicates. Next, the transfection potential of the CPP2:siFLuc on non-adherent cells such as the firefly luciferase stably transfected U937 human macrophage was evaluated (FIG. 15C). […] The silencing efficiency was determined with 40%, 80% and 100% for the siRNA concentrations of 10 nM, 20 nM and 50 nM, respectively.

[8] = tested on: U87 cells; assay: Cytotoxicity from Western blot internal control (vinculin) and total protein (BCA); type: cell-based, human; conditions: siCDK4 50 nM
Procedure: Western blotting. Transfected cells washed in PBS, and lysed in RIPA buffer [50 mM Tris pH 8.0, 150 mM sodium chloride, 1% Triton X-100, 0.1% SDS (sodium dodecyl sulfate, Sigma-Aldrich), including protease inhibitors (SigmaFAST, Sigma-Aldrich)]. Cells were incubated for 5 min on ice with 130 μL/24-well lysis buffer. Thereafter, cells were scrapped and transferred in a 1.5 ml tube. After 5 min on ice, the cell lysates were centrifuged (10 min, 13,400 rpm, 4° C.), supernatants were collected and protein concentrations were determined using the Pierce BCA Protein Assay (ThermoFisher). Cell extracts (0.25-0.38 μg/μL) were separated by 4-20% Mini-PROTEAN® TGX™ Precast Gel (Bio-Rad). After electrophoresis, samples were transferred onto Trans-Blot® Turbo™ Mini PVDF Transfer membrane (Bio-Rad). As antibodies (all from Cell Signaling), we used anti-cyclin B1 mouse mAb V152, anti-CDK4 rabbit mAb D9G3E, anti-Vinculin rabbit mAb E1E9V, anti-mouse IgG HRP and anti-rabbit IgG HRP. […] The signal intensities of the blots were quantified by Image J.
The cytotoxicity could be observed in Western blot using the internal control (Vinculin expression: bars in dark gray) or the total protein concentrations (measured by the BCA kit, value in red).

Row | Conformation by circular dichroism, PEPTIDE +siRNA +charged LUVs [5] | Conformation by circular dichroism, PEPTIDE +siRNA +neutral LUVs [5] | Conformation by circular dichroism, PEPTIDE [5] | Substance | PdI [1] | Mean size (nm) I (%) [1] [nm] | Mean size (nm) Nb (%) [1] [nm] | Luciferase knock-down at R=40 relative to R=20 [4] | Conformation by circular dichroism, PEPTIDE +siRNA [5] | further results
1 | – | – | – | RLLRLLRWWWRLLRLLR (CPP2-6R) | 0.34 ± 0.03 | 59.8 ± 9.3 | 25.9 ± 3.9 | – | – | –
2 | – | – | – | RLLWRLWRLLWRLWRLLR (CPP1-6R) | 0.42 ± 0.08 | 125.3 ± 65.1 | 23.3 ± 3.4 | – | – | –
3 | helix | helix | turn/rc | LLRLLRWWWRLLRLL-NH2 [CPP2, LLRLLRWWWRLLRLL] | – | 80.0 ± 4.9 | 35.7 ± 7.3 | slightly increased | alpha helical structure; also recorded: helix | ZP (mV) ([2]; CPP:siRNA R = 20, 5% glucose with 1 mM NaCl): 28.8 ± 0.9 mV; Cytotoxicity [3]: without any cytotoxicity; Reduction of firefly luciferase expression ([4]; 1 nM to 20 nM siRNA, R 20, L or D isoform): dose-dependent manner; Incubation time for maximum and saturating FLuc silencing [4]: 60 min; Reduction in the luciferase activity in presence of serum [4]: around 70%; Reduction of FLuc activity [4]: 40%; Fold more active than C6M1-L in reduced luciferase expression [4]: 3.5 fold; Fold more active than C6M1 in reduced luciferase expression [4]: 2 fold; Increase of knock-down efficiency, dilution condition versus vol:vol condition ([4]; U87 cells, siFLuc 5-20 nM): 2 fold; IC50 values of internalization (50%), incubation time [6]: 185 s; Incubation time to maximal fluorescence of delivered siRNA [6]: ~15 min
4 | – | – | – | 5′-CUU-ACG-CUG-AGU-ACU-UCG-AdTdT-3′ [siFLuc] | – | – | – | – | – | Knock-down efficiency of siRNA alone [7]: did not shown any knock-down efficiency
5 | – | – | – | LLRLRWWWRLRLL (CPP2-2) | – | – | – | – | – | Activity of nanoparticles in luciferase silencing [4]: total inactivity
6 | – | – | – | RLLWRLW-----LWRLLR (RLLWRLWLWRLLR; CPP1-4R) | 0.50 ± 0.04 | 1012 ± 984 | 422 ± 498 | – | – | –
7 | – | – | – | RGD-Ahx-LLRLLRWWWRLLRLL (RGD[Ahx]LLRLLRWWWRLLRLL) [R-CPP2] | – | – | – | – | – | Reduction in the expression of luciferase ([4]; RGD-grafted peptide, R=20): ~70%
8 | – | – | – | RLLRLLWWWLLRLLR-NH2 [CPP2-4R, RLLRLL-WWW-LLRLLR] | – | – | – | – | – | Cytotoxic effect inferred from variability of luciferase measurement ([4]; nanoparticle incubation): some cytotoxic effect
9 | – | – | – | LRLRWWWRLRL (CPP2-1) | – | – | – | – | – | Activity of nanoparticles in luciferase silencing [4]: total inactivity
10 | helix | helix | turn | LLRLLRWWWWRLLRLL [CPP4] | – | 122.0 ± 71.5 | 23.6 ± 7.9 | slightly increased | alpha helical structure; also recorded: helix | –
11 | helix | helix | rc/helix | LLWRLWRLLWRLWRLL-NH2 [CPP1, LLWRLWRLLWRLWRLL] | – | 73.3 ± 7.4 | 26.5 ± 4.1 | slightly increased | alpha helical structure; also recorded: helix | Mean size of CPP1:MBBO nanoparticles (DLS) ([2]; R=5, 10 μM CPP1): 180 nm; Cytotoxicity [3]: without any cytotoxicity; Incubation time for maximum and saturating FLuc silencing [4]: 60 min; Reduction in the luciferase activity in presence of serum [4]: around 70%; Reduction of FLuc activity [4]: 40%; Fold more active than C6M1-L in reduced luciferase expression [4]: 6 fold; Fold more active than C6M1 in reduced luciferase expression [4]: 3 fold; ZP (mV) ([1]; CPP:siRNA R = 20, 5% glucose with 5 mM NaCl): 42.2 ± 4.5 mV; Cytotoxicity (vinculin, total cellular proteins) [8]: without any cytotoxicity; IC50 values of internalization (50%), incubation time [6]: 240 s; Incubation time to maximal fluorescence of delivered siRNA [6]: ~15 min

Row | Substance | Conformation by circular dichroism, PEPTIDE +siRNA +charged LUVs [5] | Conformation by circular dichroism, PEPTIDE +siRNA +neutral LUVs [5] | Conformation by circular dichroism, PEPTIDE [5] | PdI [1] | Mean size (nm) I (%) [1] [nm] | Mean size (nm) Nb (%) [1] [nm] | Luciferase knock-down at R=40 relative to R=20 [4] | Conformation by circular dichroism, PEPTIDE +siRNA [5] | further results
12 | LLRLLRWWRLLRLL (CPP3) | helix | helix | turn | around 0.3 | – | – | slightly increased | alpha helical structure; also recorded: helix | –
